Data on nine molecules can be found in PMC10160035, “Mechanism-based and computational modeling of hydrogen sulfide biogenesis inhibition: interfacial inhibition” (Scientific Reports, 2023).

The term Kd denotes a measure of binding affinity in units of concentration. What is called IC50 is the concentration needed to halve the response being measured. Usually stoichiometry N stands for a count of units in the complex or per binding partner.

Data set [1] addresses T1, recombinant human CSE (cystathionine γ-lyase), tag-less (Homo sapiens, UniProt P32929).
T1 construct: 6xHis (TEV-cleavable) (N, cleaved yes); made in house; host or cells: E. coli One Shot BL-21 Star (DE3)
As to the kind of experiment: D-penicillamine binding followed by PLP fluorescence quenching. Conditions: PLP fluorescence at 495 nm, 100 mM HEPES pH 7.4, 20 °C, n = 3 ± SD; read-out: Kd (dissociation constant between tag-less CSE and D-pen). The procedure:
The addition of D-pen induced a quenching of fluorescence. […] The black line represents the fit to the experimental data with a four-parameter logistic equation to obtain the dissociation binding constant of D-pen for CSE.
Fluorescence emission spectra were recorded 5 min after D-pen addition.

Data set [2] concerns the target T2, human CSE (cystathionine γ-lyase) (Homo sapiens, UniProt P32929). Put plainly: lead acetate assay of H2S production from cysteine. On the set-up: 6xHis (TEV-cleavable) (N, cleaved yes); made in house; host or cells: E. coli One Shot BL-21 Star (DE3). The data set is classed as biochemical. The procedure:
Production of H2S from cysteine by CSE was measured spectrophotometrically by the lead acetate assay as previously described. […] Then, the formation of lead sulfide resulting from the reactivity of H2S with lead acetate was continuously monitored at 390 nm. The half inhibitory concentration (IC50) value was obtained by plotting the relative activity of CSE (A, in per cent) as a function of the concentration of D-pen and by fitting the data with Eq. (4), where ∆A is the maximal effect of D-pen on the activity of CSE and n is the Hillslope that characterizes the slope of the curve at its midpoint.4 A=ΔA/1+[D-Pen]/IC50^n
Next, 40 μg of CSE was added to the assay mixture to initiate the reaction, which was followed at 390 nm. The molar extinction coefficient for lead sulfide previously determined was then used to obtain vH2S[24]. The CSE-D-penicillamine dissociation constants for competitive and uncompetitive inhibition were calculated by plotting vH2S as a function of cysteine concentration and using Eq. (5).5 vH2S=Vmax×[Cys]/KM×1+[D-Pen]/Kic+[Cys]×1+[D-Pen]/Kiu

The target in data set [3] is T2, human CSE (cystathionine γ-lyase). Put plainly: biochemical.
Data set [4] concerns recombinant CSE (GST-CSE). As to conditions: 1 mM Cys, methylene blue assay, 10 min pre-incubation with CSE; read-out: IC50 towards H2S production; cited from earlier work.
Data set [5] relates to homogenated mouse aorta samples. On the set-up: method as in Brancaleone et al. (34). As to conditions: ref Brancaleone et al. (34), read-out: IC50 ex cellulo; cited from earlier work.
Data set [6] has as its target T2, human CSE (cystathionine γ-lyase).
Another data set has as its system CSE. As to conditions: cited from earlier work.
Data set [7] concerns the molecule itself. Put plainly: SEC; HiLoad 16/600 Superdex 200, 0.5 mL/min, 100 mM HEPES pH 7.4, 150 mM NaCl; oligomeric state from the estimated apparent molecular mass.

T2 sequence (P32929 whole entry): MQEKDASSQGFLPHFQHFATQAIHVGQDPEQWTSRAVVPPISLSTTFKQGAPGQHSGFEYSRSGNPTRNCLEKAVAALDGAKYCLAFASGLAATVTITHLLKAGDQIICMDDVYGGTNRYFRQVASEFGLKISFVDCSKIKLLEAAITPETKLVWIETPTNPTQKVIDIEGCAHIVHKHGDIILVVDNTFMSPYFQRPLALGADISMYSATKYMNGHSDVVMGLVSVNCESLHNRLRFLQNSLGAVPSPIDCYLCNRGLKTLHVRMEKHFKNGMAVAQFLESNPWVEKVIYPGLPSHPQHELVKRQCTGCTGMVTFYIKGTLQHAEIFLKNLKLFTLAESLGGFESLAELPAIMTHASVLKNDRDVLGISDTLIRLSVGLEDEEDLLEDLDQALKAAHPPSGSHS
T1 sequence (P32929 whole entry): as above

Take `CC(C)(S)[C@@H](N)C(=O)O` [D-pen, D-penicillamine]: in data set [1], the Kd turned out to be 15000 ± 4600 µM. Also, the 50% inhibitory concentration (IC50) was 2040 ± 130 µM in data set [2] (1 mM Cys, 200 mM HEPES pH 7.4, 37 °C, no pre-incubation with enzyme, read-out: IC50 towards H2S production); 270 µM in data set [4]; 44 µM in data set [5]. Moreover, in data set [2] (1–10 mM cysteine, 100 mM HEPES pH 7.4, 37 °C), the “Kiu (dissociation constant for uncompetitive inhibition), H2S biogenesis from Cys” value amounted to 8.60 ± 1.22 mM. Also, the Ki in data set [2] (1–10 mM cysteine, 100 mM HEPES pH 7.4, 37 °C, read-out: Kic (dissociation constant for competitive inhibition), H2S biogenesis from Cys) stood at 1820 ± 350 µM; in data set [3], 2540 ± 650 µM. For the same molecule, in data set [2] (Lineweaver–Burk analysis, varying Cys), the “mode of inhibition of H2S biogenesis” value is “mixed inhibition mechanism”. The “effect of pre-incubation time on inhibition potency” value in data set [2] (inhibition followed as a function of pre-incubating time) was “not a slow-binding inhibitor”. In data set [6] (0.1–3 mM cystathionine, 100 mM HEPES pH 7.4, 37 °C), the “Kiu (uncompetitive inhibition), α,γ-elimination of cystathionine” value is given as 8.55 ± 0.89 mM. The “mode of inhibition of cystathionine cleavage” value in data set [6] (Lineweaver–Burk analysis) is given as “mixed inhibition mechanism”.

Take `C#CCNC(=O)[C@@H]1CSC(=O)N1` [(R)-2-oxo-N-(prop-2-yn-1-yl)thiazolidine-4-carboxamide]: the “inhibitory mode towards CSE” value in the data set with CSE is given as “substrate inhibitors”.

`NCCO/C=C/[C@H](N)C(=O)O` [aminoethoxyvinyglycine]: the “inhibitory mode towards CSE” value in the data set with CSE was “slow and tight binding inhibitor”.

On to `N[C@@H](CSCCCC(=O)O)C(=O)O` [S-3-carboxypropyl-L-cysteine], for which the “inhibitory mode towards CSE” value in the data set on CSE was “suicide inhibitors”.

For `C#CCC(N)C(=O)O` (stereo not shown) [propargylglycine], the “inhibitory mode towards CSE” value with CSE was “suicide inhibitors”.

Take `N[C@H](C(=O)O)C(F)(F)F` [trifluoroalanine]: the “inhibitory mode towards CSE” value with CSE is given as “suicide inhibitors”.

In the case of `O=C(O)C1=CC(=C(c2ccc(O)c(C(=O)O)c2)c2ccc(O)c(C(=O)O)c2)C=CC1=O` [aurintricarboxylic acid], the “inhibitory mode towards CSE” value in the data set with CSE is “competitive cofactor”.

B1: human recombinant cystathionine γ-lyase with N-terminal 6xHis-tag (enzyme)
chain: MQEKDASSQGFLPHFQHFATQAIHVGQDPEQWTSRAVVPPISLSTTFKQGAPGQHSGFEYSRSGNPTRNCLEKAVAALDGAKYCLAFASGLAATVTITHLLKAGDQIICMDDVYGGTNRYFRQVASEFGLKISFVDCSKIKLLEAAITPETKLVWIETPTNPTQKVIDIEGCAHIVHKHGDIILVVDNTFMSPYFQRPLALGADISMYSATKYMNGHSDVVMGLVSVNCESLHNRLRFLQNSLGAVPSPIDCYLCNRGLKTLHVRMEKHFKNGMAVAQFLESNPWVEKVIYPGLPSHPQHELVKRQCTGCTGMVTFYIKGTLQHAEIFLKNLKLFTLAESLGGFESLAELPAIMTHASVLKNDRDVLGISDTLIRLSVGLEDEEDLLEDLDQALKAAHPPSG
modifications: pyridoxal 5'-phosphate as internal aldimine with Lys212
notes: cystathionine γ-lyase (CSE), human; also called CSE; hCSE; source: E. coli One Shot BL-21 Star (DE3), purified (His-Trap HP, HiLoad 16/600 Superdex 200); not shown: His6, N-terminal, kept
As for B1, the “stoichiometry N” value in data set [7] was 4.

B2: tag-less human recombinant cystathionine γ-lyase (enzyme)
chain: MQEKDASSQGFLPHFQHFATQAIHVGQDPEQWTSRAVVPPISLSTTFKQGAPGQHSGFEYSRSGNPTRNCLEKAVAALDGAKYCLAFASGLAATVTITHLLKAGDQIICMDDVYGGTNRYFRQVASEFGLKISFVDCSKIKLLEAAITPETKLVWIETPTNPTQKVIDIEGCAHIVHKHGDIILVVDNTFMSPYFQRPLALGADISMYSATKYMNGHSDVVMGLVSVNCESLHNRLRFLQNSLGAVPSPIDCYLCNRGLKTLHVRMEKHFKNGMAVAQFLESNPWVEKVIYPGLPSHPQHELVKRQCTGCTGMVTFYIKGTLQHAEIFLKNLKLFTLAESLGGFESLAELPAIMTHASVLKNDRDVLGISDTLIRLSVGLEDEEDLLEDLDQALKAAHPPSG
modifications: pyridoxal 5'-phosphate as internal aldimine with Lys212
notes: cystathionine γ-lyase (CSE), human; tag removed with TEV protease; also called tag-less CSE; CSE; not shown: His6, N-terminal, cleaved
Consider B2, for which the “stoichiometry N” value in data set [7] was 4.
